Data from patent US20080261936A1, “METHODS OF REDUCING THE BODY WEIGHT OF A SUBJECT BY ADMINISTERING A FATTY ACID ESTER OF AN ESTROGEN OR ESTROGEN DERIVATIVE IN AN OIL AND COMPOSITIONS CONTAINING THE SAME” (Manhattan Pharmaceuticals, Inc., priority 2006, published 2008).
Values joined by “and” are separate entries in the source; they are usually repeats but may differ in a detail not shown here. Equal entries are not always repeated.

Key:
[1] = Solubility of oleoyl-estrone in binary oil blends, 200 mg/g at room temperature; format: physicochemical
Experimental: These four types of oils were then evaluated in binary blend systems with an oleoyl-estrone concentration of 200 mg/g at room temperature for 24 hours and 96 hours.

[2] = Compatibility/stability of oleoyl-estrone in oil systems (appearance/color, potency, related substances); format: physicochemical
Experimental: The compatibility of oleoyl-estrone in various oil systems was also assessed. The respective stability of oleoyl-estrone in various oils was assessed following storage at (A) 25° C./60% and relative humidity (RH), (B) 40° C./75% RH, (C) 50° C. and (D) 60° C. in canola oil, safflower oil, Captex and a 2:1 Captex: Labrafil mixture. The stability test methods include appearance/color, potency, and related substances (e.g. impurities or degradant in the oleoyl-estrone and oil mixture).

[3] = 200 mg/g in Canola:Labrafil (2:1) at RT (about 22° C.)
[4] = 200 mg/g in Captex 300 EP:Labrafil (2:1) at RT (about 22° C.)
[5] = 200 mg/g in Safflower:Labrafil (2:1) at RT (about 22° C.)
[6] = in 2:1 CAPTEX:LABRAFIL, One Week 25° C./60% RH
[7] = in 2:1 CAPTEX:LABRAFIL, One Week 40° C./75% RH
[8] = in 2:1 CAPTEX:LABRAFIL, One Week 50° C.
[9] = in 2:1 CAPTEX:LABRAFIL, One Week 60° C.
[10] = in 2:1 CAPTEX:LABRAFIL, Time Zero
[11] = in 2:1 CAPTEX:LABRAFIL, Two Weeks 25° C./60% RH
[12] = in 2:1 CAPTEX:LABRAFIL, Two Weeks 40° C./75% RH
[13] = in CANOLA, One Week 25° C./60% RH
[14] = in CANOLA, One Week 40° C./75% RH
[15] = in CANOLA, Three Weeks 25° C./60% RH
[16] = in CANOLA, Three Weeks 40° C./75% RH
[17] = in CANOLA, Two Weeks 25° C./60% RH
[18] = in CANOLA, Two Weeks 40° C./75% RH

Structure (SMILES): CCCCCCCC/C=C\CCCCCCCC(=O)Oc1ccc2c(c1)CC[C@@H]1[C@@H]2CC[C@]2(C)C(=O)CC[C@@H]12 [oleoyl-estrone, [3(Z)]-3-[(1-oxo-9-octadecenyl)oxy]-estra-1,3,5(10)-trien-17-one]
- Notes (phase separation) [1, 3]: No phase separation
- Solubility After 24 hr [1, 3]: Dissolved
- Solubility After 96 hr [1, 3]: Dissolved
- Notes (phase separation) [1, 4]: No phase separation
- Solubility After 24 hr [1, 4]: Dissolved
- Solubility After 96 hr [1, 4]: Dissolved
- Notes (phase separation) [1, 5]: No phase separation
- Solubility After 24 hr [1, 5]: NOT Dissolved
- Solubility After 96 hr [1, 5]: Dissolved
- Solubility After 24 hr ([1]; 200 mg/g in Soybean:Labrafil (2:1) at RT (about 22° C.)): NOT Dissolved
- Mean Purity Assay [2, 6]: 101.9%
- Purity Assay [2, 6]: 100.4% and 103.3%
- Mean Purity Assay [2, 7]: 104.4%
- Purity Assay [2, 7]: 102.2% and 106.6%
- Mean Purity Assay [2, 8]: 106.8%
- Purity Assay [2, 8]: 106.6% and 107.0%
- Mean Purity Assay [2, 9]: 98.2%
- Purity Assay [2, 9]: 98.4% and 97.9%
- Mean Purity Assay ([2]; in 2:1 CAPTEX:LABRAFIL, Three Weeks 25° C./60% RH): 102.1%
- Mean Purity Assay ([2]; in 2:1 CAPTEX:LABRAFIL, Three Weeks 40° C./75% RH): 99.7%
- Mean Purity Assay ([2]; in 2:1 CAPTEX:LABRAFIL, Three Weeks 50° C.): 103.8%
- Mean Purity Assay ([2]; in 2:1 CAPTEX:LABRAFIL, Three Weeks 60° C.): 102.1%
- Mean Purity Assay [2, 10]: 104.8%
- Purity Assay [2, 10]: 105.1% and 104.9% and 103.6% and 105.2%
- Mean Purity Assay [2, 11]: 102.9%
- Purity Assay [2, 11]: 101.3% and 104.4%
- Mean Purity Assay [2, 12]: 104.5%
- Purity Assay [2, 12]: 107.3% and 101.7%
- Mean Purity Assay ([2]; in 2:1 CAPTEX:LABRAFIL, Two Weeks 50° C.): 104.0%
- Mean Purity Assay ([2]; in 2:1 CAPTEX:LABRAFIL, Two Weeks 60° C.): 106.2%
- Mean Purity Assay [2, 13]: 96.5%
- Purity Assay [2, 13]: 96.3% and 96.7%
- Mean Purity Assay [2, 14]: 95.8%
- Purity Assay [2, 14]: 95.2% and 96.4%
- Mean Purity Assay ([2]; in CANOLA, One Week 50° C.): 99.8%
- Purity Assay ([2]; in CANOLA, One Week 50° C.): 96.3% and 103.3%
- Mean Purity Assay ([2]; in CANOLA, One Week 60° C.): 98.2%
- Purity Assay ([2]; in CANOLA, One Week 60° C.): 97.8% and 98.5%
- Mean Purity Assay [2, 15]: 96.5%
- Purity Assay [2, 15]: 95.3% and 97.7%
- Mean Purity Assay [2, 16]: 98.4%
- Purity Assay [2, 16]: 94.6% and 102.2%
- Mean Purity Assay ([2]; in CANOLA, Three Weeks 50° C.): 99.4%
- Purity Assay ([2]; in CANOLA, Three Weeks 50° C.): 100.2% and 98.5%
- Mean Purity Assay ([2]; in CANOLA, Three Weeks 60° C.): 99.8%
- Purity Assay ([2]; in CANOLA, Three Weeks 60° C.): 100.4% and 99.1%
- Mean Purity Assay ([2]; in CANOLA, Time Zero): 98.1%
- Purity Assay ([2]; in CANOLA, Time Zero): 97.5% and 98.0% and 97.8% and 98.9%
- Mean Purity Assay [2, 17]: 96.4%
- Purity Assay [2, 17]: 92.5% and 100.3%
- Mean Purity Assay [2, 18]: 99.0%
- Purity Assay [2, 18]: 98.2% and 99.8%
- Mean Purity Assay ([2]; in CANOLA, Two Weeks 50° C.): 98.2%
- Purity Assay ([2]; in CANOLA, Two Weeks 50° C.): 100.2% and 96.2%
- Mean Purity Assay ([2]; in CANOLA, Two Weeks 60° C.): 97.3%
